{"source": "patent US9346812B2", "about": "“Substituted pyrrolopyrimidine compounds, compositions thereof, and methods of treatment therewith” (Signal Pharmaceutical LLC, priority 2013, dated 2016)"}
{"test_system": "CAL51 cell proliferation", "assay": "Cell Titer Glo Proliferation Assay (CAL51)", "format": "cell-based, human", "settings": "Homo sapiens, CAL-51, 72 h, read-out: Act. Level", "protocol": "(§1) Cell Titer Glo Proliferation Assay. Triple negative breast cancer cell line CAL51 was purchased from DSMZ. […] Allcell lines were maintained in growth media consisting of 90% high glucose Dulbecco's Modified Eagle Medium or RPMI1640 (Invitrogen), 10% fetal bovine serum (Hyclone), and 2 mM L-glutamine (Invitrogen). […] After overnight culture, compound stock (30 mM) was diluted serially in DMSO, further diluted in growth media, and was added to each well as a 10× concentrated solution in a volume of 11 μL, mixed, and allowed to incubate with cells. The compound vehicle (DMSO) was maintained at a final concentration of 0.2% in all wells. After 72 h, 100 μL of Cell Titer Glo solution (Promega) was added to each well of the 96-well plate. The plate was placed on a shaker for 2 minutes. After 10 minutes incubation, the luminescence signal was detected with Envision microplate reader (Perkin Elmer).", "units": {"IC50": "nM"}}
{"smiles": "CNC(=O)c1ccc(Nc2nc(OC3CCCC3)c3c(-c4ccc(O)cc4)c[nH]c3n2)cc1", "note": "[Example 1, 4-(4-(cyclopentyloxy)-5-(4-hydroxyphenyl)-7H-pyrrolo[2,3-d]pyrimidin-2-ylamino)-N-methylbenzamide]", "IC50": "< 100"}
{"test_system": "CAL51 cell proliferation", "assay": "Cell Titer Glo Proliferation Assay (CAL51)", "format": "cell-based, human", "settings": "Homo sapiens, CAL-51; CAL51 cell proliferation, 72 h, Cell Titer Glo luminescence; read-out: Act. Level", "protocol": "as §1", "units": {"IC50": "nM"}}
{"smiles": "CNC(=O)c1ccc(Nc2nc(OC3CCCC3)c3c(-c4ccc(O)cc4)c[nH]c3n2)c(C)c1", "note": "[Example 9]", "IC50": "< 100"}
{"smiles": "CNC(=O)c1ccc(Nc2nc(OC3CCCC3)c3c(-c4ccc(O)cc4)c[nH]c3n2)c(F)c1", "note": "[Example 15, 4-(4-(cyclopentyloxy)-5-(4-hydroxyphenyl)-7H-pyrrolo[2,3-d]pyrimidin-2-ylamino)-3-fluoro-N-methylbenzamide]", "IC50": "< 100"}
{"smiles": "CNC(=O)c1ccc(Nc2nc(OC3CCCC3)c3c(-c4ccc(CO)cc4)c[nH]c3n2)c(OC)c1", "note": "[Example 23, 4-(4-(cyclopentyloxy)-5-(4-(hydroxymethyl)phenyl)-7H-pyrrolo[2,3-d]pyrimidin-2-ylamino)-3-methoxy-N-methylbenzamide]", "IC50": "100 to 400"}
{"smiles": "CNC(=O)c1ccc(Nc2nc(OC3CCCC3)c3c(-c4ccc(O)c(Cl)c4)c[nH]c3n2)c(OC)c1", "note": "[Example 24, 4-(5-(3-chloro-4-hydroxyphenyl)-4-(cyclopentyloxy)-7H-pyrrolo[2,3-d]pyrimidin-2-ylamino)-3-methoxy-N-methylbenzamide]", "IC50": "< 100"}
{"smiles": "CNC(=O)c1ccc(Nc2nc(OC3CCCC3)c3c(-c4ccc5cn[nH]c5c4)c[nH]c3n2)c(OC)c1", "note": "[Example 25, 4-(4-(cyclopentyloxy)-5-(1H-indazol-6-yl)-7H-pyrrolo[2,3-d]pyrimidin-2-ylamino)-3-methoxy-N-methylbenzamide]", "IC50": "100 to 400"}
{"smiles": "CNC(=O)c1ccc(Nc2nc(OC3CCCC3)c3c(-c4cccc(CO)c4)c[nH]c3n2)c(OC)c1", "note": "[Example 26, 4-(4-(cyclopentyloxy)-5-(3-(hydroxymethyl)phenyl)-7H-pyrrolo[2,3-d]pyrimidin-2-ylamino)-3-methoxy-N-methylbenzamide]", "IC50": "< 100"}
{"smiles": "CNC(=O)c1ccc(Nc2nc(OC3CCCC3)c3c(-c4ccc5nn[nH]c5c4)c[nH]c3n2)c(OC)c1", "note": "[Example 27, 4-(5-(1H-benzo[d][1,2,3]triazol-6-yl)-4-(cyclopentyloxy)-7H-pyrrolo [2,3-d]pyrimidin-2-ylamino)-3-methoxy-N-methylbenzamide]", "IC50": "< 100"}
{"smiles": "CNC(=O)c1ccc(Nc2nc(OC3CCCC3)c3c(-c4ccc(-c5nnc[nH]5)cc4)c[nH]c3n2)c(OC)c1", "note": "[Example 28, 4-(5-(4-(4H-1,2,4-triazol-3-yl)phenyl)-4-(cyclopentyloxy)-7H-pyrrolo[2,3-d]pyrimidin-2-ylamino)-3-methoxy-N-methylbenzamide]", "IC50": "< 100"}
{"smiles": "CNC(=O)c1ccc(Nc2nc(OC3CCOCC3)c3c(-c4ccc(O)cc4)c[nH]c3n2)c(Cl)c1", "note": "[Example 29, 3-chloro-4-(5-(4-hydroxyphenyl)-4-(tetrahydro-2H-pyran-4-yloxy)-7H-pyrrolo[2,3-d]pyrimidin-2-ylamino)-N-methylbenzamide]", "IC50": "< 100"}
{"smiles": "CNC(=O)c1ccc(Nc2nc(OC3CCCC3)c3c(-c4ccc5nc[nH]c5c4)c[nH]c3n2)c(OC)c1", "note": "[Example 30, 4-(5-(1H-benzo[d]imidazol-6-yl)-4-(cyclopentyloxy)-7H-pyrrolo[2,3-d]pyrimidin-2-ylamino)-3-methoxy-N-methylbenzamide]", "IC50": "< 100"}
{"smiles": "COc1cc(C(=O)N(C)C)ccc1Nc1nc(OC2CCCC2)c2c(-c3ccc(O)cc3)c[nH]c2n1", "note": "[Example 31, 4-(4-(cyclopentyloxy)-5-(4-hydroxyphenyl)-7H-pyrrolo[2,3-d]pyrimidin-2-ylamino)-3-methoxy-N,N-dimethylbenzamide]", "IC50": "< 100"}
{"smiles": "CNC(=O)c1ccc(Nc2nc(OC3CCCC3)c3c(-c4ccc(NS(C)(=O)=O)cc4)c[nH]c3n2)c(OC)c1", "note": "[Example 32, 4-(4-(cyclopentyloxy)-5-(4-(methylsulfonamido)phenyl)-7H-pyrrolo[2,3-d]pyrimidin-2-ylamino)-3-methoxy-N-methylbenzamide]", "IC50": "< 100"}
{"smiles": "CNC(=O)c1ccc(Nc2nc(OC3CCCC3)c3c(-c4ccc(O)c(C#N)c4)c[nH]c3n2)c(OC)c1", "note": "[Example 33, 4-(5-(3-cyano-4-hydroxyphenyl)-4-(cyclopentyloxy)-7H-pyrrolo[2,3-d]pyrimidin-2-ylamino)-3-methoxy-N-methylbenzamide]", "IC50": "< 100"}
{"smiles": "CNC(=O)c1ccc(Nc2nc(OC3CCCC3)c3c(-c4cncc(OC)c4)c[nH]c3n2)c(Cl)c1", "note": "[Example 34, 3-chloro-4-(4-(cyclopentyloxy)-5-(5-methoxypyridin-3-yl)-7H-pyrrolo [2,3-d]pyrimidin-2-ylamino)-N-methylbenzamide]", "IC50": "100 to 400"}
{"smiles": "CNC(=O)c1ccc(Nc2nc(OC3CCCC3)c3c(-c4ccc5oc(C)nc5c4)c[nH]c3n2)c(OC)c1", "note": "[Example 35, 4-(4-(cyclopentyloxy)-5-(2-methylbenzo[d]oxazol-5-yl)-7H-pyrrolo[2,3-d]pyrimidin-2-ylamino)-3-methoxy-N-methylbenzamide]", "IC50": "1000 to 10000"}
{"smiles": "CNC(=O)c1ccc(Nc2nc(NC3CCCCC3)c3c(-c4ccc(O)cc4)c[nH]c3n2)c(OC)c1", "note": "[Example 36, 4-(4-(cyclohexylamino)-5-(4-hydroxyphenyl)-7H-pyrrolo[2,3-d]pyrimidin-2-ylamino)-3-methoxy-N-methylbenzamide]", "IC50": "< 100"}
{"smiles": "CNC(=O)c1ccc(Nc2nc(OC3CCCC3)c3c(-c4ccc(N)cc4)c[nH]c3n2)c(OC)c1", "note": "[Example 37, 4-(5-(4-aminophenyl)-4-(cyclopentyloxy)-7H-pyrrolo[2,3-d]pyrimidin-2-ylamino)-3-methoxy-N-methylbenzamide]", "IC50": "< 100"}
{"smiles": "CNC(=O)c1ccc(Nc2nc(OC3CCCC3)c3c(-c4ccc(NC(N)=O)cc4)c[nH]c3n2)c(OC)c1", "note": "[Example 39, 4-(4-(cyclopentyloxy)-5-(4-ureidophenyl)-7H-pyrrolo[2,3-d]pyrimidin-2-ylamino)-3-methoxy-N-methylbenzamide]", "IC50": "< 100"}
{"smiles": "CNC(=O)c1ccc(Nc2nc(NC3CCOCC3)c3c(-c4ccc(O)cc4)c[nH]c3n2)c(OC)c1", "note": "[Example 40, 4-(5-(4-hydroxyphenyl)-4-(tetrahydro-2H-pyran-4-ylamino)-7H-pyrrolo[2,3-d]pyrimidin-2-ylamino)-3-methoxy-N-methylbenzamide]", "IC50": "< 100"}
{"smiles": "CNC(=O)c1ccc(Nc2nc(OC3CCCC3)c3c(-c4ccc(-c5ccn[nH]5)cc4)c[nH]c3n2)c(OC)c1", "note": "[Example 41, 4-(5-(4-(1H-pyrazol-5-yl)phenyl)-4-(cyclopentyloxy)-7H-pyrrolo[2,3-d]pyrimidin-2-ylamino)-3-methoxy-N-methylbenzamide]", "IC50": "100 to 400"}
{"smiles": "CNC(=O)c1ccc(Nc2nc(OC3CCCC3)c3c(-c4ccc(O)c(F)c4)c[nH]c3n2)c(OC)c1", "note": "[Example 42, 4-(4-(cyclopentyloxy)-5-(3-fluoro-4-hydroxyphenyl)-7H-pyrrolo[2,3-d]pyrimidin-2-ylamino)-3-methoxy-N-methylbenzamide]", "IC50": "< 100"}
{"smiles": "CNC(=O)c1ccc(Nc2nc(OC3CCCC3)c3c(-c4ccc(O)c(C)c4)c[nH]c3n2)c(OC)c1", "note": "[Example 43, 4-(4-(cyclopentyloxy)-5-(4-hydroxy-3-methylphenyl)-7H-pyrrolo[2,3-d]pyrimidin-2-ylamino)-3-methoxy-N-methylbenzamide]", "IC50": "< 100"}
{"smiles": "COc1cc(C(N)=O)ccc1Nc1nc(OC2CCCC2)c2c(-c3ccc(O)cc3)c[nH]c2n1", "note": "[Example 44, 4-(4-(cyclopentyloxy)-5-(4-hydroxyphenyl)-7H-pyrrolo[2,3-d]pyrimidin-2-ylamino)-3-methoxybenzamide]", "IC50": "< 100"}
